Source: patent US11324795B2, “Composition comprising Hordeum vulgare extract for preventing or treating short stature” (UNIVERSITY-INDUSTRY COOPERATION GROUP OF KYUNG HEE …, priority 2013, dated 2022)

Tested on: Sprague-Dawley female rats
Assay: Evaluation of longitudinal bone growth effect, tetracycline staining method
Assay type: in vivo, rat
Method: As experimental animals, four-week-old Sprague-Dawley female rats (Samtako, Korea) weighing about 100 g were purchased and cared for so as to be acclimatized to the experimental environment while supplying sufficient feed and water. After about 1 week for the acclimatization period, animal testing was performed.
Two days after administration, 20 mg/kg of tetracycline hydrochloride (Sigma T7660) was injected intraperitoneally to all test groups. Two days thereafter, the rats were sacrificed via cervical dislocation, after which the left and right tibiae were removed, fixed in a fixing solution at 4° C. for 3 days, allowed to stand in 50 mM EDTA for 1 day, demineralized, and immersed in 30% sucrose overnight to protect freezing. The bone tissue thus dehydrated was frozen, and cut into 40 μm sections using a sliding microtome (HM440E, Zeiss, Germany), thus collecting sagittal sections of the proximal part of the tibia. To measure the bone growth, each sagittal section of the proximal part of the tibia, 40 μm thick, was placed on a slide glass, dried, and then observed under UV light at a wavelength of 400 nm using a fluorescence microscope (FIG. 1). Using image analysis software ImageJ (NIH, USA), the length between the fluorescence bands formed by the deposition of tetracycline in the growth plate and the bone tissue was measured, and Student's t-test and ANOVA test for comparison with a control group were performed in order to determine the growth effect.
The Hordeum vulgare extract prepared in Example 1 was administered after having been dissolved in a concentration of 30 mg/kg in type II distilled water in a volume of 1.0 ml per 100 g of rat weight, and as a control group, the same volume of type II distilled water was administered. The Hordeum vulgare extract was orally administered two times a day for a total of four days, starting from 2 days before the administration of tetracycline until the test termination day. […]

Substance: Positive control group: recombinant human growth hormone (rhGH; LG Lifescience, Eutropin®)
- Longitudinal bone growth rate (%) (Table 1, extract 30 mg/kg (p.o.), positive control 20 μg/kg (s.c.)): 6.6%
- longitudinal bone growth rate (proximal tibia, tetracycline band length, 4 days dosing, extract 30 mg/kg p.o. two times a day, rhGH 20 μg/kg s.c. once a day): 360.1±35.8 μm/day
- longitudinal bone growth rate, % higher than normal control group (vs 337.8±30.0 μm/day in normal control group, extract 30 mg/kg p.o. (p<0.001), rhGH 20 μg/kg s.c. (not significant)): 6.6%
